The text below walks through data of paper PMC6749586, “Design, Synthesis, and Anticancer Effect Studies of Iridium(III) Polypyridyl Complexes against SGC-7901 Cells” (Molecules, 2019).

Where two headings read alike, the source gives them in different places.

Assay [1] concerns SGC-7901 cells. The assay can be described thus: Mitochondrial membrane potential assay with JC-1. Format: cell-based, human. Particulars: substance alone: 4.0 µM 1, 15.0 µM 2, 15.0 µM 3, CCCP or NAC; 24 h; control 12.03. Here is the method: The SGC-7901 cells were seeded into a 12-well plate at a density of 1.5 × 10^5 cells per well and incubated to attach at 37 °C in 5% CO2. Overnight, the cells were treated with complexes 1–3 for 24 h. CCCP was used as a positive control. Then, the cells were incubated with JC-1 for 30 min at room temperature, after which the remaining dye was washed away with PBS. The samples were then observed under the ImageXpress Micro XLS system and flow cytometry was employed to quantify the fluorescence intensity.

For assay [2], the system named is SGC-7901 cells. Put plainly: MTT cytotoxicity assay, SGC-7901. Format: cell-based, human. The following applies: read-out: IC50 toward SGC-7901. From the text: (§1) The lung carcinoma cell line A549, the cervical cancer cell line HeLa, the esophageal cancer cell line Eca-109, and the human hepatocellular carcinoma cell line BEL-7402 were purchased from the cell bank of the Cell Institute of Sinica Academia Shanghai (Shanghai, China). The gastric adenocarcinoma cell line SGC-7901, the hepatocellular carcinoma cell line HepG2, and the mouse embryonic fibroblast cell line NIH 3T3 were obtained from the Experimental Animal Center of Sun Yat-Sen University (Guangzhou, China). The BEL-7402 and SGC-7901 cell lines were cultured in Roswell Park Memorial Institute Medium (RPMI-1640); and A549, Eca-109, HepG2, and NIH 3T3 cells were grown in Dulbecco’s Modified Eagle’s Medium (DMEM), including 10% fetal bovine serum (FBS), 100 units mL^−1 penicillin/streptomycin mixture, and 2.0 g/L of NaHCO3. Cell passage experiments were performed with trypsin every 2 days to maintain exponential growth. All cells were cultured until they reached logarithmic growth phase, unless specifically noted.
(§2) Cell cytotoxicity following treatment with the iridium(III) complexes was detected by MTT assay. The cells were seeded into 96-well micro-assay culture plates (1 × 10^4 cells per well) and grown overnight in a 5% CO2 incubator at 37 °C. Then, the cell lines were treated with gradient concentrations of the complexes 1–3. After treatment for 48 h, MTT solution (5 mg mL^−1, […]) dissolved in phosphate buffer was added to each well and the cells were further cultured for 4 h. Upon completion of incubation, the solvent was removed and 100 µL/well of buffer containing dimethylformamide (50%) and sodium dodecyl sulfate (20%) was added to dissolve the produced formazan. The absorbance of each well was measured with a microplate reader at a wavelength of 490 nm. The IC50 values were determined from the plots of viability versus concentration used to treat the cells. Three independent experiments were performed to obtain the mean values.

Assay [3] deals with A549 cells. The assay can be described thus: MTT cytotoxicity assay, A549. Type of assay: cell-based, human. The following applies: read-out: IC50 toward A549.
From the text: as §1, §2

The subject of assay [4] is HeLa cells. Put plainly: MTT cytotoxicity assay, HeLa. Type of assay: cell-based, human. The following applies: 48 h, read-out: IC50 toward HeLa.
From the text: as §1, §2
In general terms: Tetrazolium assays rely on reduction of a dye to a coloured formazan, in cell work by metabolically active cells.

Assay [5] deals with HepG2 cells. Put plainly: MTT cytotoxicity assay, HepG2. Format: cell-based, human. The following applies: read-out: IC50 toward HepG2.
From the text: as §1, §2

For assay [6], the system named is BEL-7402 cells. Put plainly: MTT cytotoxicity assay, BEL-7402. Type of assay: cell-based, human. Particulars: read-out: IC50 toward BEL-7402.
From the text: as §1, §2

For assay [7], the system named is NIH 3T3 cells. The assay can be described thus: MTT cytotoxicity assay, normal NIH 3T3. Format: cell-based, mouse. The following applies: Mus musculus, NIH3T3, 48 h, read-out: IC50 toward NIH 3T3.
From the text: as §1, §2

Assay [8] concerns Eca-109 cells. The assay can be described thus: MTT cytotoxicity assay, Eca-109. Format: cell-based, human. Particulars: 48 h, read-out: IC50 toward Eca-109. The text has this: The lung carcinoma cell line A549, the cervical cancer cell line HeLa, the esophageal cancer cell line Eca-109, and the human hepatocellular carcinoma cell line BEL-7402 were purchased from the cell bank of the Cell Institute of Sinica Academia Shanghai (Shanghai, China). The gastric adenocarcinoma cell line SGC-7901, the hepatocellular carcinoma cell line HepG2, and the mouse embryonic fibroblast cell line NIH 3T3 were obtained from the Experimental Animal Center of Sun Yat-Sen University (Guangzhou, China). […] Cell passage experiments were performed with trypsin every 2 days to maintain exponential growth. All cells were cultured until they reached logarithmic growth phase, unless specifically noted. Cell cytotoxicity following treatment with the iridium(III) complexes was detected by MTT assay. The cells were seeded into 96-well micro-assay culture plates (1 × 10^4 cells per well) and grown overnight in a 5% CO2 incubator at 37 °C. Then, the cell lines were treated with gradient concentrations of the complexes 1–3. After treatment for 48 h, MTT solution (5 mg mL^−1, […]) dissolved in phosphate buffer was added to each well and the cells were further cultured for 4 h. […] The absorbance of each well was measured with a microplate reader at a wavelength of 490 nm. The IC50 values were determined from the plots of viability versus concentration used to treat the cells. Three independent experiments were performed to obtain the mean values.

In the case of `CC(=O)N[C@@H](CS)C(=O)O` [NAC, N-acetylcysteine, reference compound], the “Ratio of red/green JC-1 fluorescence intensity (R)” value in assay [1] was 19.40.

In the case of `Nc1c([N+](=O)[O-])c2cccnc2c2ncccc12` [NAP, 5-nitro-6-amino-phenanthroline], the IC50 in assay [2] (Homo sapiens, SGC-7901, 48 h) was 90.9 ± 7.4 µM; in assay [3] (Homo sapiens, A549, 48 h) it was 42.7 ± 2.1 µM; in assay [4] (Homo sapiens, HeLa), 45.8 ± 4 µM; in assay [5] (Homo sapiens, HepG2, 48 h), 56 ± 1.9 µM; in assay [6] (Homo sapiens, Bel-7402, 48 h), 21.1 ± 0.8 µM; in assay [7] it was 61.9 ± 1.9 µM.

On to `Nc1c(N)c2cccnc2c2ncccc12` [DAP, 5,6-diamino-phenanthroline], for which the IC50 in assay [2] (Homo sapiens, SGC-7901, 48 h) is 15.8 ± 2.8 µM; in assay [3] (Homo sapiens, A549, 48 h), 5 ± 0.3 µM; in assay [4] (Homo sapiens, HeLa), 9.2 ± 1 µM; in assay [5] (Homo sapiens, HepG2, 48 h) it was 4.6 ± 0.8 µM; in assay [6] (Homo sapiens, Bel-7402, 48 h), 37.4 ± 3.2 µM; in assay [7], 12.3 ± 0.8 µM.

Regarding `O=[N+]([O-])c1cc2cccnc2c2ncccc12` [NP, 5-nitrophenanthroline], the IC50 in assay [2] (Homo sapiens, SGC-7901, 48 h) was 18.4 ± 0.1 µM; in assay [3] (Homo sapiens, A549, 48 h), 11.1 ± 0.7 µM; in assay [4] (Homo sapiens, HeLa), 18.1 ± 1.7 µM; in assay [5] (Homo sapiens, HepG2, 48 h) it was 16.7 ± 0.5 µM; in assay [6] (Homo sapiens, Bel-7402, 48 h), 23.5 ± 1.1 µM; in assay [7] it was > 200 µM.

Consider `N.N.[Cl][Pt][Cl]` [Cisplatin, reference compound], for which the IC50 worked out at 3.6 ± 0.5 µM in assay [2] (48 h); 7.5 ± 1.3 µM in assay [3] (48 h); 7 ± 1 µM in assay [4]; 11.2 ± 0.6 µM in assay [8]; 12.5 ± 1.5 µM in assay [5] (48 h); 10.8 ± 1.6 µM in assay [6] (48 h).

By IC50 is commonly meant the midpoint of a concentration-inhibition curve.
